Source: patent publication US11524950B2, “Treatment of immune-related and inflammatory diseases” (Celgene Corporation, priority 2012, dated 2022)

Experiments:
[1] = test system: Human umbilical vascular endothelial cells; assay: Human umbilical vascular endothelial cell tube formation assay; type: cell-based; conditions: VEGF-induced; at 10 μM; p<0.05 vs stimulated DMSO control
Experimental: Human Umbilical Vascular Endothelial Cell Tube Formation Assay: Compounds were tested in the growth factor-induced HUVEC tube formation assay. The tube formation plates were incubated at 37° C. for 30 minutes for matrigel to polymerize. The HUVECs were starved in 0.1% BSA basal EBM2 medium for 5 hours after washing with the same medium 3 times. The cells were trypsinized and centrifuged. Then 25 μL of 4× serially diluted compounds (10, 1, 0.1, 0.01, 0.001, 0.0001, 0.00001 μM) were added in duplicate with 50 μL of 2×10^4 cells/well to tube formation plates coated with matrigel. […] of 4×VEGF (final concentration=25 ng/mL) or bFGF (final concentration=10 ng/mL) were added to the plates. The cells were then incubated overnight (˜18 hours) at 37° C. in a humidified incubator. The tubule webs were stained with calcein AM at […] in 2% FBS/HBSS for 30 minutes and images taken by fluorescence microscopy. The tubules were quantified by the MetaMorph tube formation software program for tube area and tube length.
The percentage inhibition of cell proliferation, tube formation, migration, and invasion was calculated by subtracting the result for unstimulated DMSO control from test sample results, averaging all replicates, and normalizing to the growth factor-stimulated DMSO control (0% inhibition). The IC50 values were calculated by using GraphPad Prism 5.0.

DBA/2 mice = assay: Bleomycin-induced dermal fibrosis mouse model (prevention); type: in vivo; conditions: 30 mg/kg, PO, QD
Experimental: DBA/2 mice were used in this study. Eight animals were used per treatment group in the study. Mice were kept in the animal house under standard conditions with food and water ad libidum.
The vehicle, 0.5% carboxymethyl cellulose (CMC)/0.25% Tween 80, was prepared in distilled H2O and dissolved overnight on a magnetic stirrer (add 0.5 g CMC; Sigma #C9481) and 0.25 ml Tween 80 (Sigma #P8074) to 99.75 ml to make a total of 100 ml 0.5% CMC/0.25% Tween 80).
The compound was suspended, not dissolved, in this vehicle. The formulation was homogenized with a Teflon pestle and mortar (Potter-Elvehjem tissue grinder) using a motorized Eberbach tissue homogenizer. The daily drug stock concentration used in these studies was 3 mg/ml.
Bleomycin was obtained from the pharmacy of the University of Erlangen-Nuremberg and freshly prepared once a week. Skin fibrosis was induced in 6-week-old DBA mice by local intracutaneous injections of 100 μl of bleomycin dissolved in 0.9% NaCl, at a concentration of 0.5 mg/ml, every other day in defined areas of 1.5 cm^2 on the upper back.
The mouse model of bleomycin induced dermal fibrosis is widely used to evaluate anti-fibrotic therapeutics. In this model, a localized dermal fibrosis is induced by intradermal injections with bleomycin every other day for 3 weeks. This model resembles early, inflammatory stages of SSc. To evaluate potential effects on prevention of fibrosis, treatment was initiated simultaneously with the first bleomycin injection. […] Treatment consisted of administration of the vehicle (0.5% CMC/0.25% Tween 80). • Untreated bleomycin group: Intradermal injection of bleomycin for three weeks. […] Injection of Imatinib (50 mg/kg; IP, QD). […] See Akhmetshina A. et al., Arthritis Rheum 2009; 60(1):219-224.
Dermal thickness was determined by staining with hematoxylin and eosin and activated fibroblasts by using immunohistochemistry for alpha smooth muscle actin (α-SMA). The dermal thickness, as determined by the modified Rodnan Skin Score, is currently the most common primary outcome in human clinical trials for anti-fibrotic agents in SSc. […] Dermal thickness was analyzed with a Nikon Eclipse 80i microscope (Nikon, Badhoevedorp, The Netherlands) by measuring the maximal distance between the epidermal-dermal junction and the dermal-subcutaneous fat junction at 4 different skin sections in each mouse. […]
For quantification of myofibroblasts, skin sections were deparaffinized and incubated with 5% bovine serum albumin for 60 minutes. Cells positive for α-SMA were detected by incubation with monoclonal anti-α-SMA antibodies (clone 1A4; Sigma-Aldrich, Steinheim, Germany) for 2 hours at room temperature followed by incubation with 3% hydrogen peroxide for 10 minutes. […]

CD19+ B cells = assay: Cell viability during plasmablast differentiation (live cell count); type: cell-based, human; conditions: for percentage of total viable cells: after 4 days
Excerpt: To determine live cell count, B cells (see section 8.2.3) were stained with 0.4% trypan blue and live cells counted using the Countess automated cell counter (Invitrogen) in duplicate samples.

NZBWF1/J mouse = NZBWF1/J mouse model of systemic lupus erythematosus; type: in vivo; conditions: 30 mg/kg; week 4

Structure (SMILES) | tube area and length [1] | prevention of dermal thickening (DBA/2 mice; 3 weeks, p<0.001) | reduction of number of α-SMA+ myofibroblasts (DBA/2 mice; p<0.05) [%] | percentage of total viable cells (CD19+ B cells; 20 nM) | percentage of total viable cells (CD19+ B cells; 200 nM) | B cell viability (CD19+ B cells; first 4 days of culture) | anti-double stranded DNA autoantibody level, increase (NZBWF1/J mouse) [%] | peripheral blood B cells, decrease (NZBWF1/J mouse) [%] | splenic B cells (NZBWF1/J mouse)
O=C1CC[C@@H](N2Cc3c(OCc4ccc(CN5CCOCC5)cc4)cccc3C2=O)C(=O)N1 [R-enantiomer, (R)-3-[4-(4-morphlin-4-ylmethylbenzyloxy)-1-oxo-1,3-dihydro-isoindo-2-yl]piperidine-2,6-dione] | significant inhibition |  |  |  |  |  |  |  | 
O=C1CC[C@H](N2Cc3c(OCc4ccc(CN5CCOCC5)cc4)cccc3C2=O)C(=O)N1 [Test compound, (S)-3-[4-(4-morphlin-4-ylmethylbenzyloxy)-1-oxo-1,3-dihydro-isoindo-2-yl]piperidine-2,6-dione] |  | approximately 25±0.49% | 24±0.09 | 69.6 % of control | 35.8 % of control | reduced | 86 | 25 | no change
